Laboratory results: patent US20260234165A1, “MACROCYCLIC COMPOUNDS, PREPARATION METHOD THEREFOR, AND USE THEREOF” (GENFLEET THERAPEUTICS (SHANGHAI) INC., priority 2004, published 2026)
Counter-ions that a name gives are not always drawn.

Experiments:
[1] = Assay for stability in liver microsomes; assay type: in vitro ADME; settings: human liver microsomes
Protocol: This experiment was intended to investigate the metabolic stability of the test compounds in human liver microsomes. The materials used in the experiment included 10 mM solutions of the test compounds and the control sample, human liver microsomes, and reduced nicotinamide adenine dinucleotide phosphate (NADPH) powder. In the experiment, a 100 mM potassium phosphate buffer was used as the buffer system.
The liver microsome working solution was prepared by diluting the liver microsome stock solution to 0.75 mg/mL using the 100 mM potassium phosphate buffer. Then, 5 μL of the 10 mM stock solution of the test compound was taken, and 195 μL of methanol was added. The mixture was well mixed to prepare a working solution A with a concentration of 0.25 mM.
Subsequently, the working solution A was diluted to 1.5 μM using the liver microsome working solution to prepare a compound-liver microsome mixed solution. Additionally, NADPH powder was dissolved in a 100) mM potassium phosphate buffer to prepare a 6 mM NADPH solution. The compound-liver microsome mixed solution was dispensed into a 96-well plate at 30 μL/well, with labeled time points of 0 min, 30 min, and 60 min. For 0-min samples, 180 μL of acetonitrile containing 100 ng/mL tolbutamide and 15 μL of the NADPH solution were added directly. The 96-well plate and the NADPH solution were then preheated under a 37° C. water bath for 5 min. After the preheating, 15 μL of the NADPH solution was added to each of the 30-min and 60-min sample wells. The plate was gently shaken for mixing and then incubated under the 37° C. water bath for the corresponding time. After the incubation was completed. 180 μL of acetonitrile containing 100 ng/mL tolbutamide was added to each sample well. The plate was sealed with a sealing film, shaken for 10 min (800 rpm/min), and then centrifuged for 15 min (4000 rpm). After the centrifugation, 50 μL of the supernatant was taken and added to a 96-well plate containing 150 μL of deionized water, and then the plate was sealed and shaken for 10 min (800 rpm) for uniform mixing. Subsequently sample analysis was performed using liquid chromatography-tandem mass spectrometry (LC-MS/MS).
The elimination rate constant and clearance rate of the test compound in liver microsomes were calculated using the following formulas: Remaining rate (%)=(peak area ratio of the compound to internal standard at any time point/peak area ratio of the compound to internal standard at 0 min)×100%,^4. T1/2=0.693/ke, where ke is the elimination rate constant and T1/2 is the half-life. Liver microsome intrinsic clearance rate (CLint(mic))=0.693/(T1/2× microsome protein concentration (mg/mL)). Liver intrinsic clearance rate (CLint(liver))=CLint(mic)×microsome protein-to-liver weight ratio (mg/g)×liver-to-body weight ratio (g/kg). In the formulas, CLint(mic) is the liver microsome intrinsic clearance rate, CLint(liver) is the liver intrinsic clearance rate, and CL(liver) is the liver clearance rate. For humans, the microsome protein-to-liver weight ratio was 45 mg/g, and the liver-to-body weight ratio was 20.7 g/kg.

[2] = Pharmacokinetic study in rats; assay type: in vivo, Sprague-Dawley (SD) rats; settings: Sprague-Dawley, rat, plasma, male SD rats
Excerpt: A total of 6 healthy adult male Sprague-Dawley (SD) rats were provided by Zhejiang Vital River Laboratory Animal Technology Co., Ltd. For each test compound, 6 healthy adult male SD rats were selected and randomly divided into 2 groups: an intravenous administration (IV) group and an intragastric administration (PO) group. The LC-MS/MS method was used to determine the drug concentrations in the plasma of rats at different time points after intravenous and intragastric administration of the test compounds. This experiment was intended to investigate the pharmacokinetic performance of the test compounds in rats and to evaluate the pharmacokinetic characteristics. Each drug used in the experiment was prepared from the test compound powder: An appropriate amount of test compound powder was weighed out, and appropriate amounts of DMSO, a 10% aqueous Solutol HS 15 solution, and a 6% aqueous HP-β-CD solution were sequentially added according to a volume ratio of 5:10:85. The mixture was vortexed and sonicated until clarification. The final concentration of the drug in the IV group was 0.5 mg/mL, and the final concentration of the drug in the PO group was 1 mg/mL; the concentrations could be adjusted according to actual needs. For the drug in the PO group of Z504, an appropriate amount of test compound powder was weighed out, and an appropriate amount of 0.5% MC+0.2% Tween 80 aqueous solution was added. The mixture was well mixed by vortexing to give a 1 mg/mL homogeneous suspension: the concentration could be adjusted according to actual needs.
All experimental rats were fasted overnight, and food intake was resumed 4 h after administration. For the rats in the IV group, the administration volume was set at 2 mL/kg, with Z554 and Z915 administered at a dose of 0.5 mg/kg and the other compounds at a dose of 1 mg/kg. For the rats in the PO group, the administration volume was 10 mL/kg and the dose was 10 mg/kg. The administration amount was adjusted according to the body weight of the rats on the day of administration. In the experiment, blood samples were collected from the rats in the IV group at multiple time points (0.0833 h, 0.25 h, 0.5 h, 1 h, 2 h, 4 h, 7 h, and 24 h) after administration, while blood samples were collected from the PO group at 0.25 h, 0.5 h, 1 h, 2 h, 4 h, 7 h, and 24 h after administration, with approximately 100 μL collected each time via the orbital blood collection method.
The blood samples were placed in centrifuge tubes containing EDTA-K2 and centrifuged at 8000 rpm for 4 min within 30 min to separate the supernatant plasma. The resulting plasma samples were stored at −20° C. for later use. For sample analysis, 20 μL of each of plasma samples and calibration standards was added to a 96-well plate, and 160 μL of acetonitrile containing 100 ng/mL tolbutamide was added. The samples were vortexed for 5 min for uniform mixing, and then centrifuged at 4000 rpm for 15 min. After the centrifugation was completed, 50 μL of supernatant was added to a 96-well plate containing 150 μL of deionized water. The plate was then sealed and shaken for uniform mixing. Sample analysis was performed by LC-MS/MS.
The sampling volume could be adjusted according to actual needs, but the final concentration should be kept unchanged.

[3] = test system: p-ERK in NCI-H441 cells (KRAS G12V mutation); test: Cell p-ERK assay (HTRF) in NCI-H441 cells; assay type: cell-based, human; settings: NCI-H441 cells, 3 h compound incubation, HTRF p-ERK T202/Y204; read-out: H441 p-ERK IC50
Procedure, shortened: (§1)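 AsPC-1 (10000/well) or NCI-H441 (20000/well) cells were seeded overnight, then treated 3 h at 37° C. with 3.16-fold compound dilutions (0.1% DMSO final). Lysates were probed 4 h for phospho-ERK T202/Y204 by HTRF; inhibition versus DMSO and blank wells gave IC50 from four-parameter fits.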

[4] = test system: p-ERK in AsPC-1 cells (KRAS G12D mutation); test: Cell p-ERK assay (HTRF) in AsPC-1 cells; assay type: cell-based, human; settings: AsPC-1 cells, 3 h compound incubation, HTRF p-ERK T202/Y204; read-out: AsPC-1 p-ERK IC50
Procedure, shortened: as §1

[5] = test system: AsPC-1 cells (KRAS G12D mutation); test: 3D cell proliferation assay (CellTiter Glo-3D), AsPC-1; assay type: cell-based, human; settings: 3D cell proliferation (CellTiter Glo-3D), medium with 2% FBS, read-out: AsPC-1 AP IC50
Procedure, shortened: (§2)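 Cells seeded at 800 per well in medium with 2% FBS, treated next day with 3.16-fold dilution series (0.1% DMSO) for 5 days at 37°C. Viability by CellTiter-Glo 3D luminescence; inhibition normalised to DMSO and cell-free controls, IC50 by four-parameter fit.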

[6] = test system: NCI-H441 cells; test: 3D cell proliferation assay (CellTiter Glo-3D), NCI-H441; assay type: cell-based, human; settings: 3D cell proliferation (CellTiter Glo-3D), medium with 2% FBS, read-out: H441 AP IC50
Procedure, shortened: as §2

| half-life at 1 µM ([1]; NADPH, 37° C., 0/30/60 min) [min] | CLint scaled at 1 µM ([1]; liver intrinsic clearance rate) [mL/min/kg] | clearance ([2]; IV, dose 1 mg/kg) [mL/min/kg] | AUC ([2]; PO (intragastric), dose 10 mg/kg, read-out: AUC) [ng·h/mL] | Cmax ([2]; PO (intragastric), dose 10 mg/kg, read-out: Cmax) [ng/mL] | IC50 [3] [nM] | IC50 [4] [nM] | IC50 [5] [nM] | IC50 [6] [nM] | Molecule |
| --- | --- | --- | --- | --- | --- | --- | --- | --- | --- |
| 11.8 | 136 | 42.8 | 1220 | 365 |  |  |  |  | CCn1c(-c2cc(N3CCN(C)CC3)cnc2[C@H](C)OC)c2c3cc(ccc31)-c1csc(n1)C[C@H](NC(=O)[C@H]1[C@H](C)[C@@H]1C)C(=O)N1CCC[C@H](N1)C(=O)OCC(C)(C)C2 (atropisomer, axis not shown; (Ra)) [Control compound 1, (1r,2R,3S)—N-((6^3S,Z)-1^1-ethyl-(Ra)-1^2-(2-((S)-1-methoxyethyl)-5-(4-methylpiperazin-1-yl)pyridin-3-yl)-10,10-dimethyl-5,7-dioxo-6^1,6^2,6^3,6^4,6^5,6^6-hexahydro-1^1H-8-oxa-2(4,2)-thiazola-1(5,3)-indola-6(1,3)-pyridazinacycloundecaphane-4-yl)-2,3-dimethylcyclopropane-1-carboxamide, reference compound] |
|  |  |  |  |  | 0.31 | 0.42 | 0.43 | 0.4 | CCn1c(-c2cc(C#CCN3CC(O)C3)cnc2[C@H](C)OC)c2c3cc(ccc31)-c1csc(n1)C[C@H](NC(=O)[C@H]1[C@H](C)[C@@H]1C)C(=O)N1CCC[C@H](N1)C(=O)OCC(C)(C)C2 [Compound Z1065, (2R,3S)—N-((6^3S,4S,Z)-1^1-ethyl-1^2-(5-(3-(3-hydroxyazetidin-1-yl)prop-1-yn-1-yl)-((S)-1-methoxyethyl)pyridin-3-yl)-10,10-dimethyl-5,7-dioxo-6^1,6^2,6^3,6^4,6^5,6^6-hexahydro-1^1H-8-oxo-2(4,2)-thiazola-1(5,3)-indola-6(1,3)-pyridazinacycloundecaphane-4-yl)-2,3-dimethylcyclopropane-1-carboxamide formate] |
|  |  |  |  |  | 37.7 | 93 | 97.2 | 42.6 | (1S,2R,3S)—N-((6^3S,4S,Z)—(Ra)-1^2-(5-(2-(4-oxa-7-azaspiro[2,5]octan-7-yl)ethoxy)-2-((S)-1-methoxyethyl)pyridin-3-yl)-11-ethyl-10,10-dimethyl-5,7-dioxo-6^1,6^2,6^3,6^4,6^5,6^6-hexahydro-1^1H-8-oxa-2(4,2)-thiazola-1(5,3)-indola-6(1,3)- pyridazinacycloundecaphane-4-yl)-2-methyl-3-(pyrimidin-4-yl)cyclopropane-1-carboxamide [Compound Z661-1] |
